In ChEMBL document CHEMBL5512696, “Discovery of a Novel ASM Direct Inhibitor with a 1,5-Diphenyl-pyrazole Scaffold and Its Antidepressant Mechanism of Action” (J Med Chem, 2024):
pIC50: −log10 of the molar value.

Biological target: T1, Sphingomyelin phosphodiesterase (Homo sapiens, UniProt P17405)
T1 sequence (P17405 whole entry): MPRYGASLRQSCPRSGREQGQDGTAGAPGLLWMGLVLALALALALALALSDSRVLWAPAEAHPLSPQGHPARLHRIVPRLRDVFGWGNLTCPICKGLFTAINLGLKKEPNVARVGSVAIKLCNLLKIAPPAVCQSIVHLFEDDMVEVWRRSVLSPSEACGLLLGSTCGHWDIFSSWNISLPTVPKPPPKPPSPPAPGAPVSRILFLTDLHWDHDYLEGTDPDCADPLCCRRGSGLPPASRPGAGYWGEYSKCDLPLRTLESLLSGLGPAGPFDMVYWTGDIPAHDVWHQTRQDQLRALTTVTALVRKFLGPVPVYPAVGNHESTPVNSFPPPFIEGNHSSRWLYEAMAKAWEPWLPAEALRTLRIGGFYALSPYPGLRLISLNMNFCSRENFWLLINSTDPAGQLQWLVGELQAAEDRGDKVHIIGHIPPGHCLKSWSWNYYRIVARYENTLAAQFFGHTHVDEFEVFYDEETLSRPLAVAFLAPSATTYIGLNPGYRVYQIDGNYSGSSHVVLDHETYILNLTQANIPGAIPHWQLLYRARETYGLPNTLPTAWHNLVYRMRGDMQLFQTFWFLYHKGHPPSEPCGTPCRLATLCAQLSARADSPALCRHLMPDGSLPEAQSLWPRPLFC
Assay: Inhibition of human recombinant ASM (His62 to Pro628 residues) using HMU-PC as substrate incubated for 2 hrs by fluorescence based analysis

- pIC50: 5.92
Structure (SMILES): CCCCCCCCCCOc1cc(C(=O)NO)ccc1OC
